Results on four compounds are retold here after ChEMBL document CHEMBL1201862, “PubChem BioAssay data set” (2004).

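The compound was tested at five concentrations on cells cultured in 96-well plates, with a 48-hour exposure period. GI50 is the concentration that inhibits growth by half.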 Calls of active or inactive are those of the source. Cut-off read from the data, not from the text of the source: active = GI50 up to about 1.1 µM and inactive = higher. Where only a bound is given, the exact number is not on record here.

Test systems include A549; ACHN; COLO 205; EKVX; HCT-116; HCT-15; HOP-62; HOP-92; Hs-578T; IGROV-1; K562; M14; MOLT-4; NCI/ADR-RES; OVCAR-5; RXF 393; SK-OV-3; TK-10; UACC-257; MCF7.
Experiment in all cases: NCI-60 cell line screen, 48 h

Regarding `CC(Cc1ccc(O)cn1)(NC(=O)c1ccccc1)C(=O)O` (configuration not stated), the GI50 with A549 is > 100 µM (inactive); in the test on ACHN, > 100 µM (inactive); in the test with COLO 205 it was > 100 µM (inactive); in the test on EKVX, > 100 µM (inactive); in the test with HCT-116 it was > 100 µM (inactive); with HCT-15, greater than 100 µM. For the same compound, the GI50 is > 100 µM (inactive) with HOP-62; 74 µM (inactive) with HOP-92; > 100 µM (inactive) with Hs-578T; > 100 µM (inactive) in the test with IGROV-1; > 100 µM (inactive) with K562; > 100 µM (inactive) in the test on M14. In addition, the GI50 with MOLT-4, in the test with NCI/ADR-RES, in the test on OVCAR-5, in the test on RXF 393, with SK-OV-3 and in the test with TK-10 was > 100 µM (inactive) each time. In addition, the GI50 with UACC-257 was > 100 µM (inactive).
As for `C=C1C(=O)C([Si](C)(C)C)=C2C=C(C)C3(CC3)C12C` (configuration not stated), the GI50 was 24.2 µM (inactive) in the test on A549; 61.1 µM (inactive) in the test on ACHN; 14.2 µM (inactive) with COLO 205; 4.69 µM (inactive) in the test with EKVX; 37.5 µM (inactive) with HCT-116; 35.8 µM in the test on HCT-15. Besides, the GI50 is > 100 µM (inactive) in the test on HOP-62; 41.5 µM (inactive) in the test on Hs-578T; 25.2 µM (inactive) with IGROV-1; 19.1 µM (inactive) with K562; 39.8 µM (inactive) in the test on M14; 18.6 µM (inactive) in the test on MCF7. Besides, the GI50 in the test on MOLT-4 is 1.12 µM (inactive); in the test on NCI/ADR-RES it was 13.7 µM (inactive); in the test with OVCAR-5, > 100 µM (inactive); in the test on RXF 393, 15.3 µM (inactive); in the test on TK-10, 67.1 µM (inactive); in the test with UACC-257, 17.9 µM (inactive).
Regarding `O=C(Nc1ccccc1F)c1cc2ccc(O)cc2o/c1=N\c1ccccc1F`, the GI50 is 2.31 µM (inactive) in the test on A549; 2.23 µM (inactive) in the test on ACHN; 21.8 µM (inactive) in the test with COLO 205; 2.75 µM (inactive) in the test on EKVX; 2.06 µM (inactive) in the test on HCT-116; 2.47 µM in the test with HCT-15. Also, the GI50 in the test on HOP-62 is 2.19 µM (inactive); in the test with Hs-578T it was 2.33 µM (inactive); with IGROV-1 it was 2.23 µM (inactive); with K562, 2.15 µM (inactive); with M14 it was 2.55 µM (inactive); in the test with MCF7 it was 3.2 µM (inactive). Besides, the GI50 with MOLT-4 is 1.74 µM (inactive); with NCI/ADR-RES, 2.42 µM (inactive); in the test on OVCAR-5 it was 4.5 µM (inactive); with SK-OV-3, 25.4 µM (inactive); with UACC-257, 2.74 µM (inactive).
Turning to `CC1C[C@]2(C)C(=O)N(c3ccccc3)C(=N)[C@@H]2N(C)c2ccccc21` (some centres not stated), the GI50 in the test on A549 is > 100 µM (inactive); in the test on ACHN, > 100 µM (inactive); in the test with COLO 205, > 100 µM (inactive); in the test on EKVX it was > 100 µM (inactive); with HCT-116, > 100 µM (inactive); in the test with HCT-15, greater than 100 µM. Moreover, the GI50 with HOP-62, with Hs-578T, in the test on IGROV-1, with K562, in the test on M14 and in the test with MCF7 was > 100 µM (inactive) in each case. Moreover, the GI50 with MOLT-4, in the test on NCI/ADR-RES, in the test on OVCAR-5, in the test on RXF 393, with TK-10 and in the test on UACC-257 was > 100 µM (inactive) in each case.
